Among the data in BindingDB's records for doi:10.1021/acs.jmedchem.8b01467 (Janssen Research & Development, 2018) are EC50 values, retold here.

For the test, the target named is Cannabinoid receptor 2 (Homo sapiens, UniProt P34972). The test can be described thus: Inverse agonist activity at human CB2 receptor expressed in HEK293 cells assessed as […] after 30 mins by HTRF assay.

pEC50: −log10 of the molar value.

Sequence of Cannabinoid receptor 2 (P34972 whole entry): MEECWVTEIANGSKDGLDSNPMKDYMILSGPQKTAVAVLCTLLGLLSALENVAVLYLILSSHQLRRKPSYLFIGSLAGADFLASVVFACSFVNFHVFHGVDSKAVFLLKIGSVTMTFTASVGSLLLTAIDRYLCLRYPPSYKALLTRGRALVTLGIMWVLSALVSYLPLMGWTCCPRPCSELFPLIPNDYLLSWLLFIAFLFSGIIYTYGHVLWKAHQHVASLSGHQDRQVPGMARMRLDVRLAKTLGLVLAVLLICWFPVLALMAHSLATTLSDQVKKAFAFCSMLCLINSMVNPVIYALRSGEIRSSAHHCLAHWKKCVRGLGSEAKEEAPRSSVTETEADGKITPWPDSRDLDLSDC

Consider `NCCCCOc1cc(C(c2ccc(Cl)cc2)c2ccc(Cl)cc2)cc2c(NC3CCN(S(=O)(=O)C(F)(F)F)CC3)ccnc12` [US9266835, 542], for which the pEC50 – broadly, the negative decadic logarithm of the EC50, by convention in mol/L – is below 5.00.

As to `Cn1c(=O)cc(NC2CCN(S(=O)(=O)C(F)(F)F)CC2)c2cc(C(c3ccc(Cl)cc3)c3ccc(Cl)cc3)ccc21` [US9266835, 49], the pEC50 was below 5.00.

On to `COCCOc1cc(NC2CCN(S(=O)(=O)C(F)(F)F)CC2)c2cc(C(c3ccc(Cl)cc3)c3ccc(Cl)cc3)ccc2n1` [US9266835, 530], for which the pEC50 was below 5.00. In the case of `O=S(=O)(N1CCC(Nc2ccnc3c(O)cc(C(c4ccc(Cl)cc4)c4ccc(Cl)cc4)cc23)CC1)C(F)(F)F` [US9266835, 541], the negative-log EC50 (pEC50) was below 5.00. The result for `O=C(O)c1cccc(CN2CCC(Nc3cc(=O)[nH]c4ccc(C(c5ccc(Cl)cc5)c5ccc(Cl)cc5)cc34)CC2)c1` [US9266835, 129] reads below 5.00; that for `O=C(O)c1ccc(CN2CCC(Nc3cc(=O)[nH]c4ccc(C(c5ccc(Cl)cc5)c5ccc(Cl)cc5)cc34)CC2)cc1` [US9266835, 127], below 5.00. The result for `O=c1cc(NC2CCN(S(=O)(=O)c3ccccc3)CC2)c2cc(C(c3ccc(Cl)cc3)c3ccc(Cl)cc3)ccc2[nH]1` [US9266835, 80] reads below 5.00; that for `O=C(O)c1ccc(C(=O)N2CCC(Nc3cc(=O)[nH]c4ccc(C(c5ccc(Cl)cc5)c5ccc(Cl)cc5)cc34)CC2)cc1` [US9266835, 116], below 5.00.
